A value given as a limit tells only on which side of the number the result lay.

The subject of the assay is HBV. As to the kind of experiment: HBV inhibition in HepAD38 cells, extracellular HBV DNA by direct qPCR. In kind it is cell-based, hepatitis B virus. The following applies: Hepatitis B virus; for inhibition at 0.5 µM / inhibition at 1 µM: HepAD38, 96 hours, read-out: HBV inhibition % (conc μM). An excerpt: HepAD38 cell line (Ladner et al., Antimicrob Agents Chemother, 1997, 41, 1715-20) was used for HBV inhibition assays. HepAD38 is a subclone, derived from hepatoblastoma cell line HepG2 (ATCC® Number: HB-8065™), that expresses HBV genome under the transcriptional control of a tetracycline-responsive promoter in a TET-OFF system: addition of tetracycline (TET) or doxycycline suppresses HBV replication, while its removal switches on the process allowing HBV viral particles release in the cell supernatant. HepAD38 cell line is maintained in DMEM/F12, supplemented with 10% of fetal bovine serum, 1% of glutamine, 1% of penicillin/streptomycin, 0.4 mg/ml G418 and 0.3 ug/ml tetracycline. For the HBV inhibition assay, doxycycline-free medium is used in order to allow virion production.
HBV inhibition activity in vitro was performed in 96 multiwell plates. During the initial (primary) screening compounds were first tested in triplicates at concentrations of 0.1 μM, 0.5 μM and 1 μM. For selected compounds, an 8-point dose-response curve was obtained using 1:2 serial dilutions (starting from 2.5 μM, 1.25 μM or 0.4 μM, depending on the degree of inhibition observed during the primary screening). From the dose-response curves, half maximal effective concentration (EC50) could be calculated (see also below).
In more detail, compounds—typically dissolved in DMSO stock solutions—were diluted to 2× the final desired concentration in 100 μl of the above medium (without doxycycline) and plated in three replicates in the 96-well plates.
Simultaneously, HepAD38 cells—extensively pre-washed in tetracycline-free medium in order to induce HBV production—were suspended at 2*10^4 cells in 100 μl of tetracycline-free medium and added to each well of the plate, to yield a final assay volume of 200 μl.
DMSO, used for stock solutions and compounds dilutions, is always present in the assays at a final concentration of 0.5%.
Plates were then incubated 96 hours at 37° C. and then subjected to cell viability assays and extracellular HBV quantification, in order to evaluate both the cytotoxic potential and the anti-viral activity of compounds.
Cytotoxicity was assessed by a commercial fluorescence assay that measures the metabolic activity of cells, directly related to cell viability (Cell Titer Blue, Promega). For each compound, cytotoxicity was evaluated at the same concentration employed to evaluate its anti-HBV activity. Anti-HBV activity was evaluated by quantification of extracellular HBV DNA with direct qPCR. In particular, supernatant was collected and centrifuged for cell debris clarification, viral DNA was extracted from virions by addition of lysis buffer (1 mM 1,4-dithiothreitol, 0.2% sodium dodecyl sulphate) and incubated at 95° C. for 10 min. Samples were then diluted 1:40 and real time PCR amplification was performed with SYBR green assay (Power SYBR™ Green PCR Master Mix-Thermo Fisher Scientific) and specific HBV primer (HBV-DF:5′-[…]-3′ (SEQ ID No. 1), HBV-DR:5′-[…]-3′ (SEQ ID No. 2)).
All HBV inhibition or antiviral activity data are typically reported in percent (%) relative to a non-treated reference sample. Excel and Graphpad Prism programs are typically used for data elaboration and EC50 calculation.

As a reminder, the inhibition is the change of the read-out against control, counted positive when it falls. As for `Nc1ccc(C(=O)Nc2cc(F)c(F)c(F)c2)cc1S(=O)(=O)N[C@@H]1CC[C@@H](O)C1` (relative stereo) [Example E57, trans-4-amino-3-(N-(3-hydroxycyclopentyl)sulfamoyl)-N-(3,4,5-trifluorophenyl)benzamide], the inhibition at 0.5 µM was above 50%. Take `Nc1ccc(C(=O)Nc2cc(F)c(F)c(F)c2)cc1S(=O)(=O)N[C@@H]1CC[C@@H](O)C1` (stereo in doubt) [Example E26, 4-amino-3-(N-((1R,3R)-3-hydroxycyclopentyl)sulfamoyl)-N-(3,4,5-trifluorophenyl)benzamide]: the inhibition at 0.5 µM was above 50%. Consider `CNc1ccc(C(=O)Nc2cc(F)c(F)c(F)c2)cc1S(N)(=O)=O` [Example E1, 4-(methylamino)-3-sulfamoyl-N-(3,4,5-trifluorophenyl)benzamide], for which the inhibition at 1 µM is below 50%. Regarding `CNS(=O)(=O)c1cc(C(=O)Nc2cc(F)c(F)c(F)c2)ccc1N` [Example E2, 4-amino-3-(N-methylsulfamoyl)-N-(3,4,5-trifluorophenyl)benzamide], the inhibition at 1 µM was above 50%.

Regarding `Nc1ccc(C(=O)Nc2ccc(F)c(F)c2)cc1S(N)(=O)=O` [Example E4, 4-amino-N-(3,4-difluorophenyl)-3-sulfamoylbenzamide], the inhibition at 0.5 µM was above 50%. What is called EC50 is the concentration needed to bring the measured effect to its halfway point. Turning to `Nc1cc(Cl)c(C(=O)Nc2cc(F)c(F)c(F)c2)cc1S(N)(=O)=O` [Example E5, 4-amino-2-chloro-5-sulfamoyl-N-(3,4,5-trifluorophenyl)benzamide], under “HepAD38, 8-point dose-response, read-out: HBV inh EC50”, the EC50 is below 1000 nM.

Consider `Nc1cc(Br)c(C(=O)Nc2cc(F)c(F)c(F)c2)cc1S(N)(=O)=O` [Example E6, 4-amino-2-bromo-5-sulfamoyl-N-(3,4,5-trifluorophenyl)benzamide], for which the inhibition at 1 µM is above 50%. Take `Nc1ccc(C(=O)Nc2ccc(F)c(C(F)(F)F)c2)cc1S(N)(=O)=O` [Example E7, 4-amino-N-(4-fluoro-3-(trifluoromethyl)phenyl)-3-sulfamoylbenzamide]: the inhibition at 0.5 µM was above 50%. As for `N#Cc1cc(NC(=O)c2ccc(N)c(S(N)(=O)=O)c2)ccc1F` [Example E8, 4-amino-N-(3-cyano-4-fluorophenyl)-3-sulfamoylbenzamide], the inhibition at 0.5 µM was above 50%. On to `Nc1ccc(C(=O)Nc2ccc(F)c(C(F)F)c2)cc1S(N)(=O)=O` [Example E9, 4-amino-N-(3-(difluoromethyl)-4-fluorophenyl)-3-sulfamoylbenzamide], for which the inhibition at 0.5 µM was above 50%. On to `Nc1ccc(C(=O)Nc2ccc(F)c(Cl)c2)cc1S(N)(=O)=O` [Example E10, 4-amino-N-(3-chloro-4-fluorophenyl)-3-sulfamoylbenzamide], for which the inhibition at 0.5 µM was above 50%. With `Nc1ccc(C(=O)Nc2ccc(Cl)nc2)cc1S(N)(=O)=O` [Example E11, 4-amino-N-(6-chloropyridin-3-yl)-3-sulfamoylbenzamide], the inhibition at 0.5 µM is below 50%.

As to `Cc1cc(NC(=O)c2ccc(N)c(S(N)(=O)=O)c2)ccc1F` [Example E12, 4-amino-N-(4-fluoro-3-methylphenyl)-3-sulfamoylbenzamide], the inhibition at 0.5 µM was above 50%. In the case of `Cc1c(F)cc(NC(=O)c2ccc(N)c(S(N)(=O)=O)c2)cc1F` [Example E13, 4-amino-N-(3,5-difluoro-4-methylphenyl)-3-sulfamoylbenzamide], the inhibition at 0.5 µM was below 50%. As for `Nc1ccc(C(=O)Nc2ccc(F)c(F)c2F)cc1S(N)(=O)=O` [Example E14, 4-amino-3-sulfamoyl-N-(2,3,4-trifluorophenyl)benzamide], the inhibition at 0.5 µM was below 50%. Take `Nc1ccc(C(=O)Nc2cc(F)c(F)cc2F)cc1S(N)(=O)=O` [Example E15, 4-amino-3-sulfamoyl-N-(2,4,5-trifluorophenyl)benzamide]: the inhibition at 0.5 µM was below 50%. As to `Nc1ccc(C(=O)Nc2ccc(F)cc2Cl)cc1S(N)(=O)=O` [Example E16, 4-amino-N-(2-chloro-4-fluorophenyl)-3-sulfamoylbenzamide], the inhibition at 0.5 µM was below 50%.

The values above are taken from patent publication US20210276967A1 (OSPEDALE SAN RAFFAELE S.R.L., priority 2018, published 2021).
